Test system: not listed separately
Assay: DRUGMATRIX: Sodium/nucleoside co-transporter radioligand binding (ligand: nitrobenzylthioinosine)
Format: cell membranes, Cavia porcellus, Dunkin-Hartley, Cerebral cortex, Membrane
Conditions: Not Active = under 50% inhibition at 10 µM

SMILES | IC50 | Ki
CC(C)(C)NC(=O)[C@@H]1CN(Cc2cccnc2)CCN1C[C@@H](O)C[C@@H](Cc1ccccc1)C(=O)N[C@H]1c2ccccc2C[C@H]1O.O | Not Active | Not Active
COc1cc(C(=O)NC2CCCNC2)cc(OC)c1OC (stereo unspecified) [TROXIPIDE] | Not Active | Not Active
CC(C)(C)NCC(O)c1ccc(O)c(CO)c1 (stereo unspecified) [ALBUTEROL] | Not Active | Not Active
CC1(C)[C@H]2CC[C@]1(C)C(=O)C2 [(-)-CAMPHOR] | Not Active | Not Active

Molecular target: Beta-3 adrenergic receptor (Homo sapiens, UniProt P13945)
Assay: DRUGMATRIX: Adrenergic beta3 radioligand binding (ligand: [125I] Cyanopindolol)
Format: cell membranes, HEK293, Membrane
Conditions: hek293; Not Active = under 50% inhibition at 10 µM

Sequence of Beta-3 adrenergic receptor (P13945 whole entry): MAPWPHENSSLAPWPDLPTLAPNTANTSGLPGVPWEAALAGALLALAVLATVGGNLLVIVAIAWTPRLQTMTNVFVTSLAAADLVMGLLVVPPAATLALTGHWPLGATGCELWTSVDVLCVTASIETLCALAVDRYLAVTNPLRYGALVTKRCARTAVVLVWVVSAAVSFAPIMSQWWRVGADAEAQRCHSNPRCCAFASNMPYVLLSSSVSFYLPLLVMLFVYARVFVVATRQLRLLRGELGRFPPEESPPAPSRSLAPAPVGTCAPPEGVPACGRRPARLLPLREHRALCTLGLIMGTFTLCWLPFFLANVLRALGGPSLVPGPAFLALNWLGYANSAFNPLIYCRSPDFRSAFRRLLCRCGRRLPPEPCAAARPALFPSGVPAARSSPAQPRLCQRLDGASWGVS

SMILES | IC50
CC(C)(C)NC(=O)[C@@H]1CN(Cc2cccnc2)CCN1C[C@@H](O)C[C@@H](Cc1ccccc1)C(=O)N[C@H]1c2ccccc2C[C@H]1O.O | Not Active
COc1cc(C(=O)NC2CCCNC2)cc(OC)c1OC (stereo unspecified) [TROXIPIDE] | Not Active
CC(C)(C)NCC(O)c1ccc(O)c(CO)c1 (stereo unspecified) [ALBUTEROL] | Not Active
CC1(C)[C@H]2CC[C@]1(C)C(=O)C2 [(-)-CAMPHOR] | Not Active

Molecular target: Prostaglandin G/H synthase 1 (Homo sapiens, UniProt P23219);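 further: inhibition of COX-1 enzyme activity, with arachidonic acid supplied as substrate; in other assays of this panel Not Active means under 50% inhibition at 10 µM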
Assay: biochemical
Format: tissue-based, Platelet
Conditions: platelet

Sequence of Prostaglandin G/H synthase 1 (P23219 whole entry): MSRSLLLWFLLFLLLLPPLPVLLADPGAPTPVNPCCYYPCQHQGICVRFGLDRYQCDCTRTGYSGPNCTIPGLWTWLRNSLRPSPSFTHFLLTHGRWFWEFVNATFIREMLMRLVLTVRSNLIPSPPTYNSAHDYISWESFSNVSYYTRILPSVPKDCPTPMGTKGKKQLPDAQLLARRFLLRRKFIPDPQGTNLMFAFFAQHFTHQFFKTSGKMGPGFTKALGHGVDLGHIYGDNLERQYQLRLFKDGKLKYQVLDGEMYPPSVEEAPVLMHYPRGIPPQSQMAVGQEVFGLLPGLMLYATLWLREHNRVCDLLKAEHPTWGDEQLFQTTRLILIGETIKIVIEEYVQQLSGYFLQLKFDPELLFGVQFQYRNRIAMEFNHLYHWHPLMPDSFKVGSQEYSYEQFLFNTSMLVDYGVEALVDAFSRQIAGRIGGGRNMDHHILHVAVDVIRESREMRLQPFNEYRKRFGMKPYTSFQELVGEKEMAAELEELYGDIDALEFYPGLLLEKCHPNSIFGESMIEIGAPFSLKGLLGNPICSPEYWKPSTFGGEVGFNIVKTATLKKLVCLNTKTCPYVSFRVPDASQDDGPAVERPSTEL

SMILES | IC50
CC(C)(C)NC(=O)[C@@H]1CN(Cc2cccnc2)CCN1C[C@@H](O)C[C@@H](Cc1ccccc1)C(=O)N[C@H]1c2ccccc2C[C@H]1O.O | Not Active
COc1cc(C(=O)NC2CCCNC2)cc(OC)c1OC (stereo unspecified) [TROXIPIDE] | Not Active
CC(C)(C)NCC(O)c1ccc(O)c(CO)c1 (stereo unspecified) [ALBUTEROL] | Not Active
CC1(C)[C@H]2CC[C@]1(C)C(=O)C2 [(-)-CAMPHOR] | Not Active

Molecular target: T1, Alpha-1D adrenergic receptor (Homo sapiens, UniProt P25100); further: in other assays of this panel Not Active means under 50% inhibition at 10 µM
T1 sequence (P25100 whole entry): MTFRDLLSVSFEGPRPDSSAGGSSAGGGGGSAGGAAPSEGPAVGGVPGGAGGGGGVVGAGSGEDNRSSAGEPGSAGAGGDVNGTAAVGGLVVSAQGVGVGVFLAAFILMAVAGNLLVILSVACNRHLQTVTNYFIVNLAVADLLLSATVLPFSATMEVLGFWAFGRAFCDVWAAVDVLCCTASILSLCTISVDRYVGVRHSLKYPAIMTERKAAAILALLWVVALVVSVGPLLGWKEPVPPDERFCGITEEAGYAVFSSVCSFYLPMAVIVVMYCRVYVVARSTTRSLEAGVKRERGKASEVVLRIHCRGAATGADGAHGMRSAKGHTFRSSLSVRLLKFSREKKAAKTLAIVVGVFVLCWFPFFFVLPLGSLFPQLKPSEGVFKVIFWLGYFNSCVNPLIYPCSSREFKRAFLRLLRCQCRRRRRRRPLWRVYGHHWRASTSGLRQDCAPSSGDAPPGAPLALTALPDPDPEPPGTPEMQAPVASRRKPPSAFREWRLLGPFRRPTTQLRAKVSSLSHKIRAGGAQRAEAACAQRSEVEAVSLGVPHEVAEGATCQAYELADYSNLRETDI
Assay: not given
Format: cell membranes, HEK293, Membrane
Conditions: hek293

SMILES | IC50
CC(C)(C)NC(=O)[C@@H]1CN(Cc2cccnc2)CCN1C[C@@H](O)C[C@@H](Cc1ccccc1)C(=O)N[C@H]1c2ccccc2C[C@H]1O.O | Not Active
COc1cc(C(=O)NC2CCCNC2)cc(OC)c1OC (stereo unspecified) [TROXIPIDE] | Not Active
CC(C)(C)NCC(O)c1ccc(O)c(CO)c1 (stereo unspecified) [ALBUTEROL] | Not Active
CC1(C)[C@H]2CC[C@]1(C)C(=O)C2 [(-)-CAMPHOR] | Not Active

Molecular target: T2, Calcitonin receptor (Homo sapiens, UniProt P30988); further: in other assays of this panel Not Active means under 50% inhibition at 10 µM
T2 sequence (P30988 whole entry): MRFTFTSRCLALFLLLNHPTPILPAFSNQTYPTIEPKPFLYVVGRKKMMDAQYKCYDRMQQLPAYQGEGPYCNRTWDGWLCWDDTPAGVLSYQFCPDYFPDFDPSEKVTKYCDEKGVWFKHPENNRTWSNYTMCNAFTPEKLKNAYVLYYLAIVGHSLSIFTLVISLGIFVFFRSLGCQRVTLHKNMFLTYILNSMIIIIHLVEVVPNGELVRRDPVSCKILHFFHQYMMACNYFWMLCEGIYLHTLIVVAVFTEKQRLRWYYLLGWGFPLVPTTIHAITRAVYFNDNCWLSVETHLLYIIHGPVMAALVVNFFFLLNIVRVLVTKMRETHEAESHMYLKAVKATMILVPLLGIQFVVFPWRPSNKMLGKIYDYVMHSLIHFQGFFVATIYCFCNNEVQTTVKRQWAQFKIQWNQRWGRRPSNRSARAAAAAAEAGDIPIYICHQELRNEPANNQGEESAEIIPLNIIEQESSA
Assay: not given
Format: cell membranes, Membrane
Conditions: t47d

SMILES | IC50
CC(C)(C)NC(=O)[C@@H]1CN(Cc2cccnc2)CCN1C[C@@H](O)C[C@@H](Cc1ccccc1)C(=O)N[C@H]1c2ccccc2C[C@H]1O.O | Not Active
COc1cc(C(=O)NC2CCCNC2)cc(OC)c1OC (stereo unspecified) [TROXIPIDE] | Not Active
CC(C)(C)NCC(O)c1ccc(O)c(CO)c1 (stereo unspecified) [ALBUTEROL] | Not Active
CC1(C)[C@H]2CC[C@]1(C)C(=O)C2 [(-)-CAMPHOR] | Not Active

Molecular target: T3, Cathepsin G (Homo sapiens, UniProt P08311);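 further: inhibition of Cathepsin G enzyme activity, tested on an AMC-conjugated peptide substrate; in other assays of this panel Not Active means under 50% inhibition at 10 µM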
T3 sequence (P08311 whole entry): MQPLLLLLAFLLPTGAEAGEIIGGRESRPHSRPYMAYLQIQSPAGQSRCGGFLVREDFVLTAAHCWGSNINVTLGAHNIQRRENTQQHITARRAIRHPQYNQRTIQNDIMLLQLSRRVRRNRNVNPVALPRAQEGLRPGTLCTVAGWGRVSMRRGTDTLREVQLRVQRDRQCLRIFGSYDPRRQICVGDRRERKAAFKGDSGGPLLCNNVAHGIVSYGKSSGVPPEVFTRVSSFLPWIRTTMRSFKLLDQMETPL
Assay: not given
Format: tissue-based
Conditions: neutrophil

SMILES | IC50
CC(C)(C)NC(=O)[C@@H]1CN(Cc2cccnc2)CCN1C[C@@H](O)C[C@@H](Cc1ccccc1)C(=O)N[C@H]1c2ccccc2C[C@H]1O.O | Not Active
COc1cc(C(=O)NC2CCCNC2)cc(OC)c1OC (stereo unspecified) [TROXIPIDE] | Not Active
CC(C)(C)NCC(O)c1ccc(O)c(CO)c1 (stereo unspecified) [ALBUTEROL] | Not Active
CC1(C)[C@H]2CC[C@]1(C)C(=O)C2 [(-)-CAMPHOR] | Not Active

Molecular target: Epidermal growth factor receptor (Homo sapiens, UniProt P00533)
Assay: DRUGMATRIX: Protein Tyrosine Kinase, EGF Receptor enzyme inhibition (substrate: Poly(Glu:Tyr))
Format: cell-based, Insect cells
Conditions: insect cells; Not Active = under 50% inhibition at 10 µM

Sequence of Epidermal growth factor receptor (P00533 whole entry): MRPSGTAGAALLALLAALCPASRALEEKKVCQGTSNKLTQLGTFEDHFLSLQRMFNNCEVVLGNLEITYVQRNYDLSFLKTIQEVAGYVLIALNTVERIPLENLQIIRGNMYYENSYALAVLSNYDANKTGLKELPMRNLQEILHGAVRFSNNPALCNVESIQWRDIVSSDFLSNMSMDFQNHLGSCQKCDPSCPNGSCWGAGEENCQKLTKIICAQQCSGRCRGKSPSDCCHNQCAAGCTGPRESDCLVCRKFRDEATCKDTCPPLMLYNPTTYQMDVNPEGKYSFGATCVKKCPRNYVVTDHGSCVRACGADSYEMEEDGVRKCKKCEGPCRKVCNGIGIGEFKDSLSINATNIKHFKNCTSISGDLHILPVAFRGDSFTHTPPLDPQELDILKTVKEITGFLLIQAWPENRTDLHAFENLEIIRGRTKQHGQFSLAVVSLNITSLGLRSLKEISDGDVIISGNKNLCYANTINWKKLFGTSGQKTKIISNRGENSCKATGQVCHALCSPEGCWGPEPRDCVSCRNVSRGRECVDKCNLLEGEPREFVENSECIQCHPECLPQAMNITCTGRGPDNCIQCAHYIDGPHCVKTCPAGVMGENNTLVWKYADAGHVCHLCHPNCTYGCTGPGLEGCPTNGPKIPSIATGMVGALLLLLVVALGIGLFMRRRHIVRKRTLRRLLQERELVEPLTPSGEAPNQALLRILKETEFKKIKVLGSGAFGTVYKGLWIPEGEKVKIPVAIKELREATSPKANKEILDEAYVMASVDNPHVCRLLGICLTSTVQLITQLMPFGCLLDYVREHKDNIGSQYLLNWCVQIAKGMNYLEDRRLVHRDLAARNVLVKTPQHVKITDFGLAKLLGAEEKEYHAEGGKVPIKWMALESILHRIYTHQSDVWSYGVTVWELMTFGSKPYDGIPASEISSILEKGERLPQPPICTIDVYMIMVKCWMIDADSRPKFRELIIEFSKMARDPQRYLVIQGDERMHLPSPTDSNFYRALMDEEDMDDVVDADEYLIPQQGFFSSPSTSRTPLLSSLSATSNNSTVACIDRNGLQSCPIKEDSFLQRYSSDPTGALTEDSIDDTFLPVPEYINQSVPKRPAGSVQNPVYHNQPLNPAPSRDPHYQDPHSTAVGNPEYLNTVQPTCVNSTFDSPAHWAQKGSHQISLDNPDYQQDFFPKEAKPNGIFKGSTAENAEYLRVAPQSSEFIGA

SMILES | IC50
CC(C)(C)NC(=O)[C@@H]1CN(Cc2cccnc2)CCN1C[C@@H](O)C[C@@H](Cc1ccccc1)C(=O)N[C@H]1c2ccccc2C[C@H]1O.O | Not Active
COc1cc(C(=O)NC2CCCNC2)cc(OC)c1OC (stereo unspecified) [TROXIPIDE] | Not Active
CC(C)(C)NCC(O)c1ccc(O)c(CO)c1 (stereo unspecified) [ALBUTEROL] | Not Active
CC1(C)[C@H]2CC[C@]1(C)C(=O)C2 [(-)-CAMPHOR] | Not Active

Molecular target: T4, D(4) dopamine receptor (Homo sapiens, UniProt P21917)
T4 sequence (P21917 whole entry): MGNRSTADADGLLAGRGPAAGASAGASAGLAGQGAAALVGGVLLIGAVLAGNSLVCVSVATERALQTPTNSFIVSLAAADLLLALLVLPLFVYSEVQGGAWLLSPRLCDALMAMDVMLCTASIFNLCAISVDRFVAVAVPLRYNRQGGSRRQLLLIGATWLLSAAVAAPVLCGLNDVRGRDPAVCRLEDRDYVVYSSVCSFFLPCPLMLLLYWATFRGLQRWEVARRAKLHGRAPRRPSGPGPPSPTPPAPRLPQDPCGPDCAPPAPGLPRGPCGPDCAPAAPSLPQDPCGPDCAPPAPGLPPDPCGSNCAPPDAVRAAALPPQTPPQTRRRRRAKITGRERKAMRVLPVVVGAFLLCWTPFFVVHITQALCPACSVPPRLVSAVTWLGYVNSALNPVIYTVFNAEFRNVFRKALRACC
Assay: DRUGMATRIX: Dopamine D4.2 radioligand binding (ligand: [3H] Spiperone)
Format: cell membranes, CHO-K1, Membrane
Conditions: cho-k1; Not Active = under 50% inhibition at 10 µM

SMILES | IC50
CC(C)(C)NC(=O)[C@@H]1CN(Cc2cccnc2)CCN1C[C@@H](O)C[C@@H](Cc1ccccc1)C(=O)N[C@H]1c2ccccc2C[C@H]1O.O | Not Active
COc1cc(C(=O)NC2CCCNC2)cc(OC)c1OC (stereo unspecified) [TROXIPIDE] | Not Active
CC(C)(C)NCC(O)c1ccc(O)c(CO)c1 (stereo unspecified) [ALBUTEROL] | Not Active
CC1(C)[C@H]2CC[C@]1(C)C(=O)C2 [(-)-CAMPHOR] | Not Active

Molecular target: Glycine receptor (Rattus norvegicus, UniProt P22771+P24524+P07727+P20781); further: in other assays of this panel Not Active means under 50% inhibition at 10 µM
Assay: not given
Format: cell membranes, Wistar, Spinal cord, Membrane
Conditions: not given

SMILES | IC50
CC(C)(C)NC(=O)[C@@H]1CN(Cc2cccnc2)CCN1C[C@@H](O)C[C@@H](Cc1ccccc1)C(=O)N[C@H]1c2ccccc2C[C@H]1O.O | Not Active
COc1cc(C(=O)NC2CCCNC2)cc(OC)c1OC (stereo unspecified) [TROXIPIDE] | Not Active
CC(C)(C)NCC(O)c1ccc(O)c(CO)c1 (stereo unspecified) [ALBUTEROL] | Not Active
CC1(C)[C@H]2CC[C@]1(C)C(=O)C2 [(-)-CAMPHOR] | Not Active

Molecular target: Protein kinase C alpha type (Homo sapiens, UniProt P17252)
Assay: not given
Format: cell-based
Conditions: sf9

SMILES | IC50
CC(C)(C)NC(=O)[C@@H]1CN(Cc2cccnc2)CCN1C[C@@H](O)C[C@@H](Cc1ccccc1)C(=O)N[C@H]1c2ccccc2C[C@H]1O.O | Not Active
COc1cc(C(=O)NC2CCCNC2)cc(OC)c1OC (stereo unspecified) [TROXIPIDE] | Not Active
CC(C)(C)NCC(O)c1ccc(O)c(CO)c1 (stereo unspecified) [ALBUTEROL] | Not Active
CC1(C)[C@H]2CC[C@]1(C)C(=O)C2 [(-)-CAMPHOR] | Not Active

Molecular target: T5, Alpha-1A adrenergic receptor (Rattus norvegicus, UniProt P43140)
T5 sequence (P43140 whole entry): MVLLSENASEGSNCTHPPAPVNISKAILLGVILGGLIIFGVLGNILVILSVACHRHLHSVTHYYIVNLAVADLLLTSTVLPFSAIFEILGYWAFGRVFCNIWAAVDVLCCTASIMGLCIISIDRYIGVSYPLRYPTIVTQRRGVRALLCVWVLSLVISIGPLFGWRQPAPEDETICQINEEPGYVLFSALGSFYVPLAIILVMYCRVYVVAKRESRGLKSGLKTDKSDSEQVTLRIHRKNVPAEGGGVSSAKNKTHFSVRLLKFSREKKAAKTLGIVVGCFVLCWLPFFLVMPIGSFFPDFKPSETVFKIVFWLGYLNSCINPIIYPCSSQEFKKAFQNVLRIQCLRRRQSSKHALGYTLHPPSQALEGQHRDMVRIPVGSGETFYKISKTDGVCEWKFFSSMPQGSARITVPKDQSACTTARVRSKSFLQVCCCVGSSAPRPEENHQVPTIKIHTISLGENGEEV
Assay: DRUGMATRIX: Alpha-1A adrenergic receptor radioligand binding (ligand: prazosin)
Format: cell membranes, Wistar, Submaxillary gland, Membrane
Conditions: Not Active = under 50% inhibition at 10 µM

SMILES | IC50
CC(C)(C)NC(=O)[C@@H]1CN(Cc2cccnc2)CCN1C[C@@H](O)C[C@@H](Cc1ccccc1)C(=O)N[C@H]1c2ccccc2C[C@H]1O.O | Not Active
COc1cc(C(=O)NC2CCCNC2)cc(OC)c1OC (stereo unspecified) [TROXIPIDE] | Not Active
CC(C)(C)NCC(O)c1ccc(O)c(CO)c1 (stereo unspecified) [ALBUTEROL] | Not Active
CC1(C)[C@H]2CC[C@]1(C)C(=O)C2 [(-)-CAMPHOR] | Not Active

Test system: not listed separately
Assay: DRUGMATRIX: Phosphodiesterase PDE4 enzyme inhibition (substrate: [3H]cAMP + cAMP)
Conditions: u-937; Not Active = under 50% inhibition at 10 µM

SMILES | IC50 | Ki
CC(C)(C)NC(=O)[C@@H]1CN(Cc2cccnc2)CCN1C[C@@H](O)C[C@@H](Cc1ccccc1)C(=O)N[C@H]1c2ccccc2C[C@H]1O.O | Not Active | Not Active
COc1cc(C(=O)NC2CCCNC2)cc(OC)c1OC (stereo unspecified) [TROXIPIDE] | Not Active | Not Active
CC(C)(C)NCC(O)c1ccc(O)c(CO)c1 (stereo unspecified) [ALBUTEROL] | Not Active | Not Active
CC1(C)[C@H]2CC[C@]1(C)C(=O)C2 [(-)-CAMPHOR] | Not Active | Not Active

Source: ChEMBL document CHEMBL1909046, “DrugMatrix in vitro pharmacology data”
